Values after ≈ are worked out from the molar mass of the structure shown.
Assays:
[1] = solubility; assay type: physicochemical; conditions: pH 7
[2] = pharmacokinetic profiling; assay type: in vivo
[3] = test system: Ki-67; test: JIMT-1 xenograft, Ki-67; assay type: in vivo, mice; conditions: 4 mg/kg, vs TZMB-treated group
Protocol: Xenograft mice were generated to evaluate the anticancer effects of the candidate compound. NCI-N87 and JIMT-1 cells (5×10^6 cells), dissolved in 100 μL of 1× phosphate-buffered saline (PBS), were subcutaneously injected into the right flanks of 5-week-old female athymic nude mice (Envigo, USA) or 4-week-old female NOD-SCID mice (Koatech, South Korea). When the tumors reached a volume of 90-100 mm^3, the mice were randomized into designated groups. For the NCI-N87 xenograft, intravenous administration was performed six times at 3-day intervals. For the JIMT-1 xenograft, intraperitoneal administration was performed eight times at 3-day intervals. […] Tumor size changes were monitored until the mean tumor size in the control group reached 2,000-2,500 mm^3. On day 28 for the NCI-N87 xenograft and day 46 for the JIMT-1 xenograft, the mice were sacrificed, and tumors were excised to determine relative tumor sizes. Tumor length (L) and width (W) were measured with calipers, and tumor volume was calculated using the formula: […]
For immunohistochemistry (IHC) analysis, tumors from the xenograft models were prepared as paraffin-embedded sections. […] The control group was counterstained with hematoxylin, and the IHC staining was evaluated under an optical microscope at 200× magnification.

[4] = test system: TZMB-sensitive cells; test: treatment of TZMB-sensitive cells; assay type: cell-based; conditions: parent BT474 and NCI-N87
Protocol: The ability of the candidate compound to overcome trastuzumab resistance was evaluated.

[5] = test system: NCI-N87 cells; test: apoptosis analysis (Annexin V, FACS); assay type: cell-based; conditions: dose-dependent
Protocol: (§1) Specifically, 5×10^5 NCI-N87 cells were seeded in 60 mm dishes and cultured until they reached 70-80% confluence. The cells were treated with varying concentrations of the candidate compound and cultured for 8 hours. The cells were treated with trypsin and then washed with cold PBS (pH 7.4). For cell cycle analysis, the cells were fixed with 70% ethanol and cultured at 4 °C for 30 minutes, followed by staining with FxCycle™ PI/RNase staining solution (Invitrogen™, USA). Cell cycle analysis was performed using a fluorescence-activated cell sorting (FACS) device (BD Biosciences, USA).
Cells for apoptosis analysis were prepared using the same method as described for the cell cycle analysis. The cells were treated with trypsin, washed with 1×PBS, and resuspended in each sample using the FITC Annexin V Apoptosis Detection Kit I (BD Pharmingen™). Apoptosis was analyzed using a FACS device.

[6] = target: ErbB2 (Homo sapiens, UniProt P04626); test: kinase profiling, ErbB2; assay type: biochemical; conditions: read-out: In vitro kinase inhibitory activity (%)
Protocol: Kinase inhibitory activity of the candidate compound at 10 μM and 25 μM was assessed using Eurofins Kinase Profiling Services. Inhibitory effects on c-RAF, EGFR, ErbB2, ErbB4, and PI3 kinase were analyzed according to the Kinase Profiler Service Assay protocol.

[7] = target: Nluc-ELF3 / Cluc-MED23391-462 (Homo sapiens, UniProt Q9ULK4); test: split luciferase biosensor assay; assay type: cell-based; conditions: dose-dependent
Protocol: The biosensor used for the assay was prepared using the In-Fusion® HD Cloning Kit with firefly (Photinus pyralis) luciferase. The luciferase enzyme was split into two fragments (Nluc and Cluc). The full-length ELF3 (wild-type) and MED23 mutants were cloned into the […] and KpnI sites, and the NotI and KpnI sites of p3Xflag-myc-CMV26, respectively. The full-length cDNA of human ELF3 (accession number NM_001114309.1) was fused to the N-terminal fragment of split luciferase (Nluc), while the […] of MED23 (accession number NM_001270521.1) was fused to the C-terminal of split luciferase (Cluc).
Bioluminescence intensity, complementarily generated by ELF3-MED23 binding, was measured using this method (FIG. 3B).

[8] = test system: HER2 protein; test: HER2 protein expression; assay type: cell-based; conditions: dose-dependent
Protocol: For western blot analysis, cells were seeded in a 6-well plate and lysed in 1×RIPA lysis buffer (Cell Signaling, USA) containing 1% 0.1 M [COMPOUND LEFT OUT] and 1% 100× protease inhibitor cocktail solution (Genedepot, USA). Total protein levels were standardized using the Pierce™ BCA Protein Assay Kit (Thermo Fisher Scientific, USA) and a microplate reader (Tecan Group Ltd., Switzerland). A total of 20 μg of protein was loaded onto a 10-15% SDS-PAGE acrylamide gel and transferred to a 0.2 μm PVDF membrane (Pall Life Science, USA). The membrane was blocked with 5% skim milk or 5% BSA, and the membrane was cultured with primary antibodies (purchased from Thermo Fisher, Cell Signaling, Santa Cruz, Novus, or MBL) at room temperature for 3 hours or overnight at 4 °C. The blot was washed three times with Tris-buffered saline containing 0.1% Tween20 (1×TBST) and incubated with an HRP-conjugated secondary antibody (GeneTex, USA). Protein bands were detected using ECL solution reagents (GE Healthcare, USA) and the LAS-3000 imaging system (Fuji Photo Film Co., Ltd., Japan), and captured images were analyzed using Multi-Gauge software (Fuji Photo Film Co. Ltd.). The preparation of cell lysates for subsequent analyses was performed using the same method as described for western blot analysis.

[9] = test system: NCI-N87 cells; test: cell cycle analysis (FACS); assay type: cell-based
Protocol: as §1

[10] = target: T1, MED23-ELK1 PPI (Homo sapiens, UniProt Q9ULK4); test: immunoprecipitation, MED23-ELK1 PPI; assay type: cell-based
T1 construct: co-immunoprecipitation of ELK1, probably endogenous
Protocol: NCI-N87 cells from a gastric cancer cell line were seeded in a 100 mm cell culture dish and cultured until they reached 60-70% confluence. The cultured cells were transfected with p3Xflag-myc-CMV26-empty or p3Xflag-myc-CMV26-MED23^WT plasmids using Lipofectamine® 2000 (Invitrogen, USA). After transfection, YK1 (5 μM) was added 12 hours post-transfection, and the cells were cultured for 12 hours. A total of 750 μg of cell lysate was incubated with 20 μL of FLAG-agarose bead slurry (Sigma Aldrich, USA) on a rotator at 4 °C for 4 hours. The sample was centrifuged at 12,000 rpm for 1 minute to precipitate the beads. After removing the supernatant, the remaining beads were washed three times with 200 μL of lysis buffer (RIPA).
After removing the final supernatant, the beads were eluted by boiling with 2× sample buffer at 98 °C for 5 minutes. The immunoprecipitated proteins were loaded, separated by SDS-PAGE, and analyzed by Western blotting.

Chain of ErbB2 (P04626 676-1255 limits assumed): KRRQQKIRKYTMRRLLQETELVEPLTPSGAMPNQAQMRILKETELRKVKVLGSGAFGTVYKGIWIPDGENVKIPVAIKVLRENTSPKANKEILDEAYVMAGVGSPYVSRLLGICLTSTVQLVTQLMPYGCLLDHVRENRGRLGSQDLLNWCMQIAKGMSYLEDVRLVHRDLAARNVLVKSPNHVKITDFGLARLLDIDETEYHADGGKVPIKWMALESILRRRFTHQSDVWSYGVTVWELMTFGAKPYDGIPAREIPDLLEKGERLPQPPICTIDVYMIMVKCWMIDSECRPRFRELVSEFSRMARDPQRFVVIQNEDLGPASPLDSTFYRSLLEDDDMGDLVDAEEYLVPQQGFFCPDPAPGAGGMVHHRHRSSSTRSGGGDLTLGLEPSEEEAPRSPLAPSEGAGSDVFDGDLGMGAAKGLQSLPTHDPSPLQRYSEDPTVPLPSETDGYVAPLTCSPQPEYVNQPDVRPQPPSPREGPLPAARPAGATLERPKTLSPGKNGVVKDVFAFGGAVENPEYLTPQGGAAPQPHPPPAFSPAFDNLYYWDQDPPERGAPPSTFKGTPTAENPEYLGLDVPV
T1 sequence (Q9ULK4 whole entry): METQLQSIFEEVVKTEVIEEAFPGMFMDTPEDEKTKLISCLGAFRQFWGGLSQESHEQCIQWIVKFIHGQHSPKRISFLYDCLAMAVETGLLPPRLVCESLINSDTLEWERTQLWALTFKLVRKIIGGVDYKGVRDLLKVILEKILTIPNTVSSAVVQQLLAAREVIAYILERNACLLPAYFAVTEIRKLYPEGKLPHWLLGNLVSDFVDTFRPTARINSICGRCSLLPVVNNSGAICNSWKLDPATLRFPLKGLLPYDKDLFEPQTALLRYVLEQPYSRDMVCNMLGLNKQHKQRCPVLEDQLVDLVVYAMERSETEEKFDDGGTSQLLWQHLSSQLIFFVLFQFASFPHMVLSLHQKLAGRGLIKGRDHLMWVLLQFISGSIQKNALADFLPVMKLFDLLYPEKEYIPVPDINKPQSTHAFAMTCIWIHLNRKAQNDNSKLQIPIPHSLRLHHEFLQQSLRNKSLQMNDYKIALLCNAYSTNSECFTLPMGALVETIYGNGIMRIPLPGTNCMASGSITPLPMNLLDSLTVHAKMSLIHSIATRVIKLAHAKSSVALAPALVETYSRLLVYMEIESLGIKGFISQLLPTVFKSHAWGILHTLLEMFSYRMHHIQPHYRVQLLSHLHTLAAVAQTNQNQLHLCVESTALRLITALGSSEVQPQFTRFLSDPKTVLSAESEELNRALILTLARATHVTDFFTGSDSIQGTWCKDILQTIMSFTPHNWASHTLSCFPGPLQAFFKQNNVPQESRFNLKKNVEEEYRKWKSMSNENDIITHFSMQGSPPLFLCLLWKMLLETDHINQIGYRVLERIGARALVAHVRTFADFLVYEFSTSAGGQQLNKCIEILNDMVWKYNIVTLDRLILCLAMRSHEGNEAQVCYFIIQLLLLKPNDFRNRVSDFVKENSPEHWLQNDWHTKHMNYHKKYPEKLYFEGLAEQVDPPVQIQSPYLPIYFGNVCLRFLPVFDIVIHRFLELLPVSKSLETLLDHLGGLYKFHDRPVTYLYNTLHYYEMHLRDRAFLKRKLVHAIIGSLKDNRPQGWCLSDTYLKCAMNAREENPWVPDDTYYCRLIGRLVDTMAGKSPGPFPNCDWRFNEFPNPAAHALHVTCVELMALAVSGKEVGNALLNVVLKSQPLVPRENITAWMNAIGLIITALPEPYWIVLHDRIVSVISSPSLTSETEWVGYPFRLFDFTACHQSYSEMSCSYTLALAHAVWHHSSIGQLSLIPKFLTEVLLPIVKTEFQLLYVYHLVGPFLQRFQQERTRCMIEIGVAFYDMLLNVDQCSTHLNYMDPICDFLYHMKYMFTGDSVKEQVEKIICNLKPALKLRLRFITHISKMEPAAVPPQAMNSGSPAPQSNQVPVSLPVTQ
Chain of Nluc-ELF3 / Cluc-MED23391-462 (Q9ULK4 391-462): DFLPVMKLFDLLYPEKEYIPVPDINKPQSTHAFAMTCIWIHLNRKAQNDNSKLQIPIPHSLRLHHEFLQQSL

## CC(=O)N1N=C(c2cccc(O)c2)CC1c1ccc(Cl)cc1 (stereo not shown) [Compound 15, 1-[5-(4-Chlorophenyl)-3-(3-hydroxyphenyl)-4,5-dihydropyrazol-1-yl]-ethanone]
[1]
  solubility: 103.2 ± 0.6 µg/mL (≈ 328 µM)
[2]; intravenous
  half-life T1/2 (IV): 9.74 ± 2.76 h
[2]; intravenous and oral routes
  bioavailability (Ft): 25.1%
[3]
  proliferation marker Ki-67: significantly reduced in the candidate compound-treated group compared to the TZMB-treated group
[4]
  anticancer effect in TZMB-sensitive cells: significant anticancer effects not only in TZMB-sensitive cells but also in TZMB-resistant cells
[5]
  apoptosis: significantly promoted apoptosis in a dose-dependent manner
[6]; ErbB2, 10 μM
  inhibition at 10 µM: 2%
[6]; ErbB2, 25 μM
  inhibition at 25 µM: 0%
[7]
  luciferase activity: dose-dependently and significantly reduced
[8]
  HER2 protein expression level: significantly downregulate HER2 gene and protein expression levels in a dose-dependent manner
[9]
  G1 arrest, S and G2/M phases: promoted overall G1 arrest, accompanied by a decrease in the S and G2/M phases
[9]; time- and dose-dependent
  G1 cell fraction: significant increase in the G1 cell fraction
[10]
  PPI inhibitory effect on MED23-ELK1: did not inhibit these PPIs

— patent US20260373119A1, “NOVEL COMPOUND, AND COMPOSITION FOR PREVENTING OR TREATING HER2-POSITIVE CANCER, COMPRISING SAME” (EWHA UNIVERSITY - INDUSTRY COLLABORATION FOUNDATION, priority 2022, published 2026)
